Data: BindingDB's records for doi:10.7270/Q2J96B77 (D3R/Abbott, 2020)

Target: Cathepsin S (Homo sapiens, UniProt P25774)
Assay: D3R2020

Cathepsin S, sequence (P25774 whole entry): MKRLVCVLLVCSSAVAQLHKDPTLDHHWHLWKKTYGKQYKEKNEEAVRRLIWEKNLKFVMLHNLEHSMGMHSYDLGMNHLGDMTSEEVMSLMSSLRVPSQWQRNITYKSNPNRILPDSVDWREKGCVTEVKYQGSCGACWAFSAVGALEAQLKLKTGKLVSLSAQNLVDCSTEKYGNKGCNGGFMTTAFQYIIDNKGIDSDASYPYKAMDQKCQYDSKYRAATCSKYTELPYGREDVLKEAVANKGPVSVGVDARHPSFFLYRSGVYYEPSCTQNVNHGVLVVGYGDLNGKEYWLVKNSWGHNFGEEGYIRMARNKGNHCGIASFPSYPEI

| Structure (SMILES) | IC50 [µM] |
| --- | --- |
| Cn1c(=O)n(C2CCN(CCCn3nc(-c4ccc(C(F)(F)F)cc4)c4c3CCN(C(=O)c3c[nH]cn3)C4)CC2)c2ccccc21 [CatS_3] | 0.055 |
| COc1ccccc1C1CCN(C[C@H](O)Cn2nc(-c3ccc(C(F)(F)F)c(SCCN4CCCCC4)c3)c3c2CCNC3)CC1 [CatS_5] | 0.2 |
| CC1(C)CCN(C[C@H](O)Cn2nc(-c3ccc(C(F)(F)F)c(CNCc4ccc(F)cc4)c3)c3c2CCN(S(C)(=O)=O)C3)CC1 [CatS_8] | 0.074 |
| CC(=O)N1CCc2c(c(-c3ccc(C(F)(F)F)c(SCC(=O)N4CCCC4)c3)nn2C[C@H](O)CN2CCC(C(C)(C)O)CC2)C1 [CatS_11] | 0.16 |
| CC1CCN(CCSc2cc(-c3nn(C[C@@H](O)CN4CCC(N5C[C@@H](O)CC5=O)CC4)c4c3CN(S(C)(=O)=O)CC4)ccc2C(F)(F)F)CC1 [CatS_13] | 0.058 |
| CC(C)=CC(=O)NCc1cc(-c2nn(CCCN(C)C)c3c2CN(C(=O)CC2CCNCC2)CC3)ccc1C(F)(F)F [CatS_16] | 0.26 |
| CS(=O)(=O)N1CCc2c(c(-c3ccc(Cl)c(C#Cc4ccc(CNCc5ccc(Cl)cc5)cc4)c3)nn2CCCN2CCN(C3CC3)CC2)C1 [CatS_17] | 0.064 |
| CC(C)=CC(=O)NCc1cc(-c2nn(CCCN3CCOCC3)c3c2CN(C(=O)CC2CCN(C(=O)OC(C)(C)C)CC2)CC3)ccc1C(F)(F)F [CatS_18] | 0.17 |
| O=C(CO)N1CCc2c(c(-c3ccc(Cl)c(C#Cc4ccc(CNCc5ccc(Cl)cc5)cc4)c3)nn2CCCN2CCSCC2)C1 [CatS_40] | 0.095 |
| CC(=O)NC1CCN(CCCn2nc(-c3ccc(Cl)c(C#Cc4ccc5c(c4)CNCC5)c3)c3c2CCN(S(C)(=O)=O)C3)CC1 [CatS_50] | 0.037 |
| CS(=O)(=O)N1CCc2c(c(-c3ccc(Cl)c(C#Cc4ccc(CNCC(F)(F)F)cc4)c3)nn2CCCN2CCC(N3CCCC3=O)CC2)C1 [CatS_56] | 0.095 |
| CS(=O)(=O)N1CCc2c(c(-c3ccc(Cl)c(C#Cc4ccc(C=O)cc4)c3)nn2CCCN2CCOCC2)C1 [CatS_64] | 0.11 |
| COC(=O)[C@@H]1Cc2ccc(C#Cc3cc(-c4nn(CCCN5CCOCC5)c5c4CN(S(C)(=O)=O)CC5)ccc3Cl)cc2CN1 [CatS_71] | 0.065 |
| CN(Cc1ccc(Cl)cc1)Cc1ccc(C#Cc2cc(-c3nn(CCCN4CCN(c5ccccc5)CC4)c4c3CN(S(C)(=O)=O)CC4)ccc2Cl)cc1 [CatS_76] | 0.072 |
| CS(=O)(=O)N1CCc2c(c(-c3ccc(Cl)c(C#Cc4cccc(CNCc5ccc(Cl)cc5)c4)c3)nn2CCCN2CCN(c3ccccc3)CC2)C1 [CatS_78] | 0.065 |
| NC(=O)N1CCc2c(c(-c3ccc(Cl)c(C#Cc4ccc(CN[C@@H]5CCCc6ccccc65)cc4)c3)nn2CCCN2CCOCC2)C1 [CatS_80] | 0.098 |
| NC(=O)N1CCc2c(c(-c3ccc(Cl)c(C#Cc4ccc(Cl)c(CN5CCOCC5)c4)c3)nn2CCCN2CCCCC2)C1 [CatS_84] | 0.035 |
| C[C@H]1COCCN1CCCn1nc(-c2ccc(Cl)c(CCc3ccc(CNCc4ccc(Cl)cc4)cc3)c2)c2c1CCN(C(=O)C(N)=O)C2 [CatS_95] | 0.035 |
| C[C@H]1COCCN1CCCn1nc(-c2ccc(Cl)c(C#Cc3ccc(CNCc4ccc(Cl)cc4)cc3)c2)c2c1CCN(S(C)(=O)=O)C2 [CatS_98] | 0.076 |
| C[C@H]1COCCN1CCCn1nc(-c2ccc(Cl)c(C#Cc3ccc(C(=O)NCCN4CCOCC4)cc3)c2)c2c1CCN(C(=O)C(N)=O)C2 [CatS_100] | 0.045 |
| CNCCCNC(=O)c1ccc(C#Cc2cc(-c3nn(CCCN4CCOC[C@@H]4C)c4c3CN(C(=O)C(N)=O)CC4)ccc2Cl)cc1 [CatS_111] | 0.035 |
| CS(=O)(=O)N1CCc2c(c(-c3ccc(Cl)c(CCCN4CCOCC4)c3)nn2CCCN2CCC(N3CCCC3=O)CC2)C1 [CatS_123] | 1.17 |
| CC(C)CCNCc1cc(-c2nn(CCCN3CCC(N4CCCC4=O)CC3)c3c2CN(S(C)(=O)=O)CC3)ccc1C(F)(F)F [CatS_126] | 0.24 |
| CS(=O)(=O)N1CCc2c(c(-c3ccc(C(F)(F)F)c(SCC(=O)N4CCC[C@@H]4C(N)=O)c3)nn2CCCN2CCC(N3CCCC3=O)CC2)C1 [CatS_129] | 0.085 |
| CC(=O)N1CCN(CCCn2nc(-c3ccc(C(F)(F)F)c(SCC(=O)N4CCOCC4)c3)c3c2CCN(S(C)(=O)=O)C3)CC1 [CatS_131] | 0.31 |
| CC(=O)NC1CCN(CCCn2nc(-c3ccc(C(F)(F)F)c(SCCO)c3)c3c2CCN(S(C)(=O)=O)C3)CC1 [CatS_132] | 0.34 |

Continued by falling IC50, values first:

| IC50 [µM] | Structure (SMILES) |
| --- | --- |
| 0.035 | CS(=O)(=O)N1CCc2c(c(-c3ccc(Cl)c(C#Cc4ccc(CN[C@@H]5c6ccccc6C[C@@H]5O)cc4)c3)nn2CCCN2CCN(c3ccccc3)CC2)C1 [CatS_77] |
| 0.03 | CC(C)(C)C1CCN(CCCn2nc(-c3ccc(C(F)(F)F)c(CNCc4ccc(F)cc4)c3)c3c2CCN(S(C)(=O)=O)C3)CC1 [CatS_12] |
| 0.025 | CS(=O)(=O)N1CCc2c(c(-c3ccc(Cl)c(C#Cc4ccc(CN[C@H](CO)c5ccccc5)cc4)c3)nn2CCCN2CCN(c3ccccn3)CC2)C1 [CatS_75] |
| 0.025 | CC(C)(O)CNCc1cc(C#Cc2cc(-c3nn(CCCN4CCSCC4)c4c3CN(C(=O)C(N)=O)CC4)ccc2Cl)ccc1Cl [CatS_87] |
| 0.025 | NC(=O)C(=O)N1CCc2c(c(-c3ccc(Cl)c(C#Cc4ccc(Cl)c(CN[C@@H](CO)c5ccccc5)c4)c3)nn2CCCN2CCSCC2)C1 [CatS_88] |
| 0.025 | NC(=O)C(=O)N1CCc2c(c(-c3ccc(Cl)c(C#Cc4ccc(Cl)c(C(=O)N[C@@H](CO)c5ccccc5)c4)c3)nn2CCCN2CCSCC2)C1 [CatS_89] |
| 0.025 | C[C@H]1COCCN1CCCn1nc(-c2ccc(Cl)c(C#Cc3ccc(Cl)c(C(=O)NC[C@@H]4CCCN4)c3)c2)c2c1CCN(C(=O)C(N)=O)C2 [CatS_101] |
| 0.025 | COC(=O)CNCc1cc(C#Cc2cc(-c3nn(CCCN4CCOC[C@@H]4C)c4c3CN(C(N)=O)CC4)ccc2Cl)ccc1Cl [CatS_109] |
| 0.025 | CC(C)(C)OC(=O)N1CCC(C2CCN(C[C@H](O)Cn3nc(-c4ccc(Cl)c(CCc5ccc(Cl)cc5)c4)c4c3CCN(C(N)=O)C4)CC2)CC1 [CatS_121] |
| 0.02 | C[C@H]1COCCN1CCCn1nc(-c2ccc(Cl)c(C#Cc3ccc(Cl)c(CNCCCO)c3)c2)c2c1CCN(C(N)=O)C2 [CatS_104] |
| 0.018 | CS(=O)(=O)N1CCc2c(c(-c3ccc(Cl)c(C#Cc4ccc(CNCc5ccc(Cl)cc5)cc4)c3)nn2CCCN2CCC(N3CCCC3=O)CC2)C1 [CatS_43] |
| 0.015 | CS(=O)(=O)N1CCc2c(c(-c3ccc(C(F)(F)F)c(CNCc4ccc(F)cc4)c3)nn2CCCN2CCC(C3CCCCC3)CC2)C1 [CatS_26] |
| 0.015 | CCNCc1cc(C#Cc2cc(-c3nn(CCCN4CCCCC4)c4c3CN(C(=O)C(N)=O)CC4)ccc2Cl)ccc1Cl [CatS_82] |
| 0.015 | C[C@H]1COCCN1CCCn1nc(-c2ccc(Cl)c(C#Cc3ccc(Cl)c(CNCc4ccccc4)c3)c2)c2c1CCN(C(=O)C(N)=O)C2 [CatS_102] |
| 0.015 | NC(=O)N1CCc2c(c(-c3ccc(Cl)c(CCc4ccc(Cl)cc4)c3)nn2C[C@@H](O)CN2CCC(C3CCNCC3)CC2)C1 [CatS_117] |
